Literature values in patent US7799817B2, “Compositions and methods for sleep regulation” (LifeScape BioSciences Inc, priority 2004, dated 2010).
Like-named read-outs stand apart in the source and are kept apart here.

Key:
[1] = test system: jet lag; conditions: for mean global jet lag score: 0=no jet lag, 100=extreme jet lag
[2] = test system: jet lag
[3] = adult human

COc1ccc2[nH]cc(CCNC(C)=O)c2c1 [melatonin, N-acetyl-5-methoxytryptamine]
mean global jet lag score ([1]; eastward flights, four trials combined, placebo 51): 31
jet lag after melatonin administration ([1]; eight of ten randomized, placebo-controlled trials): less jet lag
mean global jet lag score ([1]; westward flights, two RCTs, placebo 41): 22
effectiveness of lower dose for symptoms of jet lag unrelated to sleep ([2]; 0.5 mg fast release versus 5 mg): almost as effective as the higher dose
effect of higher dose on sleep quality and sleep latency ([2]; 5 mg versus 0.5 mg fast release): greater effect on sleep quality and sleep latency than the lower dose
effectiveness of slow release form ([2]; slow release 2 mg versus 5 mg or 0.5 mg fast release): less effective than either 5 mg or 0.5 mg (fast release)
half-life [3]: approximately 45 minutes
